Assay results taken from publication PMC3749181, “Rapid Identification of Antifungal Compounds against Exserohilum rostratum Using High Throughput Drug Repurposing Screens” (PLoS ONE, 2013).
Like-named read-outs stand apart in the source and are kept apart here.

What was measured:
[1] = test system: E. rostratum hyphal fragments; test: hyphal fragment fungicidal ATP content assay (PBS, 1536-well); type: cell-based, Exserohilum rostratum; settings: for Emax / IC50: Exserohilum rostratum; for Emax / Hyphae % Max. Resp. / Hyphae % M. Res.: 46 µM Amphotericin B = 100%; for IC50: read-out: Hyphae IC50
Description: (§1) Conidia and hyphae of E. rostratum were obtained as described by Richard et al., with the following modifications. Briefly, conidia were harvested from Potato Dextrose Agar (PDA) cultured media with 0.05% Tween 80, and the conidial suspension was filtered using a Cell Strainer (100 µm, BD Falcon REF 352340). After centrifugation at 700g for 10 min, the suspension was decanted and conidia were resuspended at 1×10^5 per ml in RPMI and counted in a hemocytometer. Hyphae were harvested from yeast extract peptone dextrose (YPD) culture media with 0.05% Tween 80. Hyphal fragments were sized by vortexing 15 sec twice with 0.4 mm glassbeads, and the hyphae suspension was filtered by cheese cloth twice. […] To normalize concentrations of hyphal fragments for batch to batch consistency, carbohydrate analysis was performed by a phenol-sulfuric acid method as previously described. The final stock concentration of hyphae was adjusted to 1.0 (OD490) per 100 µl.
(§2) The ATPLite assay kit, consisting of luciferase/luciferin and detergent, was used to quantitate cellular ATP levels as a marker for cell viability (Table 1). For assay development, hyphal fragments or conidia in PBS were plated in a seeding density of 3,750, 7,500 and 15,000 cellular particles/well with a final volume of 5 µl/well using the Multidrop-Combi dispenser in white 1536-well plates. Conidia or hyphae fragments were incubated for 24 h at 37°C in a 5% CO2 humidified atmosphere. ATPLite detection reagents were added at 4 µl/well. The assay plates were incubated at room temperature for 15 minutes before reading luminescence intensity on a ViewLux plate reader (Perkin Elmer, Waltham, MA). Conidia suspended in RPMI medium were inoculated at concentrations of 62.5, 125 and 250 conidia/well with a final volume of 5 µl/well in white 1536-well plates. The conidia assay was developed and optimized in the same way as the hyphal assay.
(§3) The LOPAC library (Sigma-Aldrich) has been extensively used for HTS assay validations, [18]. The NIH Chemical Genomics Center Pharmaceutical (NPC) collection was constructed in-house through a combined effort of compound purchasing and custom synthesis and recently expanded to 4096 compounds. […] 2.5 µl/well PBS was dispensed into 1536-well plates using a Multidrop-Combi dispenser. Compound in DMSO solution was transferred in a volume of 23 nl/well using a NX-TR pintool station (WAKO Scientific Solutions, San Diego, CA). This additional PBS step for compound addition was designed to prevent the potential fungal contamination of compound libraries. The hyphal fragments in PBS were then added at 2.5 µl/well for a final seeding density of 15,000 hyphal fragments/well using the Multidrop-Combi dispenser. The final compound concentration was 46 µM in the primary screen. The assay plates were incubated for 24 h at 30°C before the detection of cellular viability with the ATP content assay. Screen of conidia was performed in a similar way except that PBS was replaced with RPMI medium and conidia were plated for a final seeding density of 250 conidia/well.
(§4) The primary screen data and curve fitting were analyzed using software developed internally at the NIH Chemical Genomics Center (NCGC). Total signals for cellular viability (100% cellular viability) were calculated from the wells with DMSO solvent and the complete cell killing (0% cellular viability) was calculated from 46 µM amphotericin B treated wells. […] All values were expressed as the mean +/− SD (n≥3).

E. rostratum conidia = test: conidia growth inhibition ATP content assay (RPMI, 1536-well); type: cell-based, Exserohilum rostratum; settings: for Conidia % M. Res. / Conidia % Max. Resp. / Emax: 46 µM Amphotericin B = 100%; for IC50: read-out: Conidia IC50
Description: as §1, §2, §3, §4

SH-SY5Y cells = test: SH-SY5Y cytotoxicity counter-screen (ATP content assay); type: cell-based, Human; settings: for SH-SY5Y % M. Res.: Inact. = no significant activity at 46 µM; for SH-SY5Y % Max. Resp.: Table 2, SH-SY5Y, inact. = no significant activity at 46 µM
Description: Human neuroblastoma SH-SY5Y cell line (Catalog No. CRL-2266) was purchased from ATCC (Manassas, VA). SH-SY5Y cell line was cultured in 175-cm^2 tissue culture flasks (Costar, Cambridge, MA) with 30 ml of growth medium at 37°C in a 5% CO2 humidified atmosphere. Growth medium was made with Dulbecco's Modified Eagle Medium: Nutrient Mixture F-12 with 10% fetal bovine serum (FBS). Growth medium was replaced every other day and cells were passed at 75% confluence.
as §2
Two small known compound libraries including the LOPAC (1280 compounds) and approved drugs (4096 compounds) were screened in parallel using the above optimized assays for hyphae and conidia in 1536-well plates (Fig. 4). […] A mammalian SH-SY5Y cell line was used in parallel as a counter-screen with the same ATP content assay kit to assess the specificity of these compounds for E. rostratum.

[2] = Table S1, Inact. = no significant activity in the primary screen, read-out: Hyphae % M. Res.
[3] = Table S1, Inact. = no significant activity in the primary screen
[4] = Table S1, Inact. = no significant activity at 46 µM
[5] = Table S1, 46 µM Amphotericin B = 100%
[6] = Table 2, inact. = no significant activity in the primary screen
[7] = Table 2, 24 h, inact. = no significant activity in the primary screen
[8] = Table 2, inact. = no significant activity at 46 µM
[9] = Table 2, 24 h, inact. = no significant activity at the highest compound concentration (46 µM)
[10] = Exserohilum rostratum, Table S1, Inact. = no significant activity at 46 µM, read-out: Conidia % M. Res.
[11] = Table 2, inact. = no significant activity in the primary screen, read-out: Hyphae % Max. Resp.
[12] = Exserohilum rostratum, 24 h, Table 2, 24 h, inact. = no significant activity at the highest compound concentration (46 µM)
[13] = Exserohilum rostratum, Table 2, inact. = no significant activity at 46 µM, read-out: Conidia % Max. Resp.
[14] = Table S1, Inact. = no significant activity at the highest compound concentration (46 µM)

| Structure (SMILES) | Emax [1, 2] | Conidia % M. Res. (E. rostratum conidia; [4]) | SH-SY5Y % M. Res. (SH-SY5Y cells; [5]) | SH-SY5Y % Max. Resp. (SH-SY5Y cells; 46 µM Amphotericin B = 100%) | SH-SY5Y % Max. Resp. (SH-SY5Y cells) | Emax [1, 11] | IC50 [1, 7] | IC50 (E. rostratum conidia; [12]) | Emax (E. rostratum conidia; [13]) | SH-SY5Y IC50 (SH-SY5Y cells; [14]) | also measured |
| --- | --- | --- | --- | --- | --- | --- | --- | --- | --- | --- | --- |
| Clc1ccc(C2(Cn3cncn3)OCCO2)c(Cl)c1 [Azaconazole] | 64% | Inact. | Inact. | – | – | – | – | – | – | – | IC50 [1, 3]: 46.9 µM; Conidia IC50 (E. rostratum conidia): Inact.; SH-SY5Y IC50 (SH-SY5Y cells): Inact. |
| CC(=O)[O][Hg][c]1ccccc1 [Phenylmercuric acetate] | – | – | – | 96% | 0.417% | – | – | – | – | – | Hyphae % Max. Resp. [1, 6]: inact.; Hyphae IC50 [1, 7]: inact.; Conidia % Max. Resp. (E. rostratum conidia; [8]): 99%; IC50 (E. rostratum conidia; [9]): 0.146 µM |
| c1ccc(-c2ccc(C(c3ccccc3)n3ccnc3)cc2)cc1 (centres unmarked) [Bifonazole] | 74% | – | 47% | – | – | – | – | – | – | – | IC50 [1, 3]: 11.8 µM; IC50 (E. rostratum conidia; Exserohilum rostratum, Table S1, Inact. = no significant activity at the highest compound concentration (46 µM)): 9.35 µM; Emax (E. rostratum conidia; [10]): 64%; IC50 (SH-SY5Y cells; Homo sapiens, SH-SY5Y, Table S1, Inact. = no significant activity at the highest compound concentration (46 µM)): 46.9 µM |
| Cc1cc(N)c2ccccc2[n+]1CCCCCCCCCC[n+]1c(C)cc(N)c2ccccc21 [Dequalinium dichloride] | – | – | – | inact. | inact. | 93% | 0.673 µM | 2.54 µM | 109% | – | – |
| O=C(Nc1ccc(Br)cc1)c1cc(Br)cc(Br)c1O [Tribromosalan] | – | – | – | inact. | inact. | – | – | – | – | – | Hyphae % Max. Resp. [1, 6]: inact.; Hyphae IC50 [1, 7]: inact.; Conidia % Max. Resp. (E. rostratum conidia; [8]): 99%; IC50 (E. rostratum conidia; [9]): 1.93 µM |
| CCCCCCCCCCCCCC[N+](C)(C)C [Tetradonium bromide] | – | – | – | inact. | inact. | – | – | 2.44 µM | 103% | – | Hyphae % Max. Resp. [1, 6]: inact.; Hyphae IC50 [1, 7]: inact. |
| C=CCOC(Cn1ccnc1)c1ccc(Cl)cc1Cl (centres unmarked) [Enilconazole] | – | – | – | inact. | inact. | 73% | 0.312 µM | 1.72 µM | 102% | – | – |
| CCCCCCC(=O)CCCCCC/C=C/C[C@@H](O)[C@H](O)[C@@](N)(CO)C(=O)O [Myriocin] | – | – | – | inact. | inact. | 81% | 2.75 µM | 13.6 µM | 92% | – | – |
| CC(C)(C)c1cc(/C=C(\C#N)C(N)=S)cc(C(C)(C)C)c1O [Tyrphostin AG 879] | – | – | – | inact. | inact. | – | – | 6.16 µM | 92% | – | Hyphae % Max. Resp. [1, 6]: inact.; Hyphae IC50 [1, 7]: inact. |
| CN(C/C=C/C#CC(C)(C)C)Cc1cccc2ccccc12 [Terbinafine] | 64% | Inact. | Inact. | – | – | – | – | – | – | Inact. | IC50 [1, 3]: 34 µM; Conidia IC50 (E. rostratum conidia; [14]): Inact. |
| OC(Cn1cncn1)(Cn1cncn1)c1ccc(F)cc1F [Fluconazole] | – | Inact. | Inact. | – | – | – | – | – | – | Inact. | Hyphae % M. Res. [1, 3]: Inact.; Hyphae IC50 [1, 3]: Inact.; activity in the hyphae assay ([1]; concentrations up to 46 µM): no activity; Conidia IC50 (E. rostratum conidia; [14]): Inact.; activity in the conidia assay (E. rostratum conidia; concentrations up to 46 µM): no activity |
| Clc1ccc(C(Cn2ccnc2)OCc2ccsc2Cl)c(Cl)c1 (centres unmarked) [Tioconazole] | 100% | – | Inact. | inact. | inact. | 100% | 5.97 µM | 8.55 µM | 101% | Inact. | Emax (E. rostratum conidia; [10]): 101% |
| CC1(C)CCC(=Cc2ccc(Cl)cc2)C1(O)Cn1cncn1 (centres unmarked) [Triticonazole] | 74% | – | Inact. | inact. | inact. | 74% | 5.82 µM | 6.95 µM | 100% | Inact. | Emax (E. rostratum conidia; [10]): 100% |
| N[C@@H](COP(=O)(O)O)C(=O)O [Dexfosfoserine] | – | Inact. | Inact. | – | – | – | – | – | – | Inact. | Hyphae % M. Res. [1, 3]: Inact.; Hyphae IC50 [1, 3]: Inact.; Conidia IC50 (E. rostratum conidia; [14]): Inact. |
| CC(C)N1CCN(c2ccc(OCC3COC(Cn4cncn4)(c4ccc(Cl)cc4Cl)O3)cc2)CC1 (centres unmarked) [Terconazole] | 100% | – | Inact. | inact. | inact. | 100% | 6.12 µM | 9.06 µM | 101% | Inact. | Emax (E. rostratum conidia; [10]): 101% |
| Oc1ccc(Cl)cc1Sc1cc(Cl)ccc1O [Fenticlor] | – | – | – | inact. | inact. | – | – | – | 107% | – | Hyphae % Max. Resp. [1, 6]: inact.; Hyphae IC50 [1, 7]: inact.; IC50 (E. rostratum conidia; Exserohilum rostratum, 24 h): 5.72 µM |
| C[C@@H]1C/C=C/C=C/C=C/C=C/[C@H](O[C@@H]2O[C@H](C)[C@@H](O)[C@H](N)[C@@H]2O)C[C@@H]2O[C@](O)(C[C@@H](O)C[C@H]3O[C@@H]3/C=C/C(=O)O1)C[C@H](O)[C@H]2C(=O)O [Natamycin] | 66% | Inact. | Inact. | – | – | – | – | – | – | Inact. | IC50 [1, 3]: 46.9 µM; Conidia IC50 (E. rostratum conidia; [14]): Inact. |
| N=C(N)c1ccc(OCCCCCOc2ccc(C(=N)N)cc2)cc1 [Pentamidine isethionate] | – | – | – | inact. | inact. | 82% | 0.468 µM | 1.11 µM | 108% | – | – |
| [N-]=[N+]=CC(=O)OC[C@H](N)C(=O)O [Azaserine] | – | Inact. | Inact. | – | – | – | – | – | – | Inact. | Hyphae % M. Res. [1, 3]: Inact.; Hyphae IC50 [1, 3]: Inact.; Conidia IC50 (E. rostratum conidia; [14]): Inact. |
